Measurements taken from ChEMBL document CHEMBL5518207, “Structure Guided Discovery of Novel Pan Metallo-β-Lactamase Inhibitors with Improved Gram-Negative Bacterial Cell Penetration” (J Med Chem, 2024).

Legend:
[1] = AUC in rat at 5 mg/kg, iv measured after 24 hrs by HPLC-MS analysis; assay type: ADME, organism-based; conditions: in vivo
Escherichia coli = assay: Potentiation of imipenem induced antibacterial activity against Escherichia coli CLB30005 harbouring NDM-1 incubated for 18 to 22 hrs in presence of imipenem by spectrophotometer based analysis; assay type: functional; conditions: time 18-22 hrs
[2] = Toxicity in Beagle dog assessed as appearance of watery eyes at 1 mg/kg, iv measured after 24 hrs by HPLC-MS analysis; assay type: organism-based, Canis lupus familiaris; conditions: in vivo
[3] = Toxicity in Beagle dog assessed as vocalization at 1 mg/kg, iv measured after 24 hrs by HPLC-MS analysis; assay type: organism-based, Canis lupus familiaris; conditions: in vivo
[4] = Cmax in Beagle dog at 1 mg/kg, iv measured after 24 hrs by HPLC-MS analysis; assay type: ADME, organism-based, Canis lupus familiaris; conditions: in vivo
[5] = Toxicity in Beagle dog assessed as increase in respiration at 1 mg/kg, iv measured after 24 hrs by HPLC-MS analysis; assay type: organism-based, Canis lupus familiaris; conditions: in vivo
Pseudomonas aeruginosa [6] = assay: Efflux ratio of MITC95 for potentiation of imipenem induced antibacterial activity against isogenic efflux wild type Pseudomonas aeruginosa MB9798 harbouring IMP to MITC95 for potentiation of imipenem induced antibacterial activity against isogenic efflux deleted mutant Pseudomonas aeruginosa MB9799 harbouring IMP; assay type: functional
[7] = Toxicity in Beagle dog assessed as emesis at 1 mg/kg, iv measured after 24 hrs by HPLC-MS analysis; assay type: organism-based, Canis lupus familiaris; conditions: in vivo
Pseudomonas aeruginosa [8] = assay: Potentiation of imipenem induced antibacterial activity against isogenic efflux deleted mutant Pseudomonas aeruginosa MB9799 harbouring IMP incubated for 18 to 22 hrs imipenem and beta lactamase inhibitor by spectrophotometer based analysis; assay type: functional; conditions: time 18-22 hrs
[9] = Inhibition of GST tagged IMP-1 (unknown origin) expressed in Escherichia coli BL21 Star (DE3) competent cells using CCF2-FA as substrate incubated for 2 hrs by fluorescence based analysis
Klebsiella pneumoniae = assay: Potentiation of imipenem induced antibacterial activity against Klebsiella pneumoniae IHMA599644 harbouring VIM-1 incubated for 18 to 22 hrs imipenem by spectrophotometer based analysis; assay type: functional; conditions: time 18-22 hrs
[10] = Clearance in rat at 5 mg/kg, iv measured after 24 hrs by HPLC-MS analysis; assay type: ADME, organism-based; conditions: in vivo
[11] = Volume of distribution at steady state in rat at 5 mg/kg, iv measured after 24 hrs by HPLC-MS analysis; assay type: ADME, organism-based; conditions: in vivo, read-out: Vdss
[12] = Inhibition of GST tagged NDM-1 (unknown origin) expressed in Escherichia coli BL21 Star (DE3) competent cells using CCF2-FA as substrate incubated for 2 hrs by fluorescence based analysis
Pseudomonas aeruginosa [13] = assay: Potentiation of imipenem induced antibacterial activity against isogenic efflux wild type Pseudomonas aeruginosa MB9798 harbouring IMP incubated for 18 to 22 hrs imipenem and beta lactamase inhibitor by spectrophotometer based analysis; assay type: functional; conditions: time 18-22 hrs
[14] = Toxicity in Beagle dog assessed as increase in histamine level in plasma at 1 mg/kg, iv measured upto 24 hrs by HPLC-MS analysis; assay type: organism-based, Canis lupus familiaris; conditions: in vivo
[15] = Cmax in rat at 5 mg/kg, iv measured after 24 hrs by HPLC-MS analysis; assay type: ADME, organism-based; conditions: in vivo
[16] = MRT in rat at 5 mg/kg, iv measured after 24 hrs by HPLC-MS analysis; assay type: ADME, organism-based; conditions: in vivo
[17] = Inhibition of GST tagged VIM-1 (unknown origin) expressed in Escherichia coli BL21 Star (DE3) competent cells using CCF2-FA as substrate incubated for 2 hrs by fluorescence based analysis
[18] = Unbound fraction in rat plasma at 5 mg/kg, iv measured after 24 hrs by HPLC-MS analysis; assay type: ADME, organism-based
Serratia marcescens = assay: Potentiation of imipenem induced antibacterial activity against Serratia marcescens CL5741 harbouring IMP-1 incubated for 18 to 22 hrs imipenem by spectrophotometer based analysis; assay type: functional; conditions: time 18-22 hrs
[19] = Toxicity in Beagle dog assessed as decrease in activity at 1 mg/kg, iv measured after 24 hrs by HPLC-MS analysis; assay type: organism-based, Canis lupus familiaris; conditions: in vivo
[20] = Clearance in rat at 1 mg/kg, iv measured after 24 hrs by HPLC-MS analysis; assay type: ADME, organism-based; conditions: in vivo
[21] = molecular target: Voltage-gated inwardly rectifying potassium channel KCNH2 (Homo sapiens, UniProt Q12809); assay: Inhibition of human ERG; assay type: toxicity
[22] = Inhibition of GST tagged VIM-2 (unknown origin) expressed in Escherichia coli BL21 Star (DE3) competent cells using CCF2-FA as substrate incubated for 2 hrs by fluorescence based analysis
[23] = MRT in Beagle dog at 1 mg/kg, iv measured after 24 hrs by HPLC-MS analysis; assay type: ADME, organism-based, Canis lupus familiaris; conditions: in vivo
[24] = Unbound fraction in Beagle dog plasma at 1 mg/kg, iv measured after 24 hrs by HPLC-MS analysis; assay type: ADME, organism-based, Canis lupus familiaris
[25] = Volume of distribution at steady state in rat at 1 mg/kg, iv measured after 24 hrs by HPLC-MS analysis; assay type: ADME, organism-based; conditions: in vivo, read-out: Vdss
Cytochrome P450 2D6 = Cytochrome P450 2D6 (Homo sapiens, UniProt P10635); assay: Inhibition of CYP2D6 (unknown origin); assay type: ADME
[26] = AUC in Beagle dog at 1 mg/kg, iv measured after 24 hrs by HPLC-MS analysis; assay type: ADME, organism-based, Canis lupus familiaris; conditions: in vivo
[27] = Unbound fraction in rat plasma at 1 mg/kg, iv measured after 24 hrs by HPLC-MS analysis; assay type: ADME, organism-based
Cytochrome P450 3A4 = Cytochrome P450 3A4 (Homo sapiens, UniProt P08684); assay: Inhibition of CYP3A4 (unknown origin); assay type: ADME
[28] = molecular target: Voltage-gated potassium channel, IKs; KCNQ1(Kv7.1)/KCNE1(MinK) (Homo sapiens, UniProt P15382+P51787); assay: Inhibition of KCNQ1/KCNE1 (unknown origin); assay type: protein-complex assay
[29] = molecular target: Voltage-dependent L-type calcium channel subunit alpha-1C (Homo sapiens, UniProt Q13936); assay: Inhibition of Cav1.2 channel (unknown origin)
[30] = Toxicity in Beagle dog assessed as severe adverse effect at 1 mg/kg, iv measured after 24 hrs by HPLC-MS analysis; assay type: organism-based, Canis lupus familiaris; conditions: in vivo
Cytochrome P450 2C8 = molecular target: T1, Cytochrome P450 2C8 (Homo sapiens, UniProt P10632); assay: Inhibition of CYP2C8 (unknown origin); assay type: ADME
T1 sequence (P10632 whole entry): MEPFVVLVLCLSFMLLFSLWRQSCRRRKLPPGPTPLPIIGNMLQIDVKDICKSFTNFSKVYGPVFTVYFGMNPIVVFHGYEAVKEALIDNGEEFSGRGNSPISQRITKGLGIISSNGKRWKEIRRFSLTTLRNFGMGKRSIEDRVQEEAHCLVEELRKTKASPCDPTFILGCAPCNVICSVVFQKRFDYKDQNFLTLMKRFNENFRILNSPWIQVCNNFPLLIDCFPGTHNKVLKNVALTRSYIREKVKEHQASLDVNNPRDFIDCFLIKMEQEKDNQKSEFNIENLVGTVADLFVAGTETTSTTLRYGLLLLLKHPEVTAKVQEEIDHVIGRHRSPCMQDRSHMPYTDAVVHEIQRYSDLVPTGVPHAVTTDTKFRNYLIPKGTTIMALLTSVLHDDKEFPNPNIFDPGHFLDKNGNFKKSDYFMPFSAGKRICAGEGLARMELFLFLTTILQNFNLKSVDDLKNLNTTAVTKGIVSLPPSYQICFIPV

[31] = AUC in rat at 1 mg/kg, iv measured after 24 hrs by HPLC-MS analysis; assay type: ADME, organism-based; conditions: in vivo
[32] = molecular target: Sodium channel protein type 5 subunit alpha (Homo sapiens, UniProt Q14524); assay: Inhibition of NaV 1.5 channel (unknown origin)
[33] = Clearance in Beagle dog at 1 mg/kg, iv measured after 24 hrs by HPLC-MS analysis; assay type: ADME, organism-based, Canis lupus familiaris; conditions: in vivo
[34] = MRT in rat at 1 mg/kg, iv measured after 24 hrs by HPLC-MS analysis; assay type: ADME, organism-based; conditions: in vivo
[35] = Cmax in rat at 1 mg/kg, iv measured after 24 hrs by HPLC-MS analysis; assay type: ADME, organism-based; conditions: in vivo
Cytochrome P450 2C9 = Cytochrome P450 2C9 (Homo sapiens, UniProt P11712); assay: Inhibition of CYP2C9 (unknown origin); assay type: ADME
[36] = Volume of distribution at steady state in Beagle dog at 1 mg/kg, iv measured after 24 hrs by HPLC-MS analysis; assay type: ADME, organism-based, Canis lupus familiaris; conditions: in vivo, read-out: Vdss
[37] = Cmax in Wistar rat at 30 mg/kg, iv measured after 24 hrs by HPLC-MS analysis; assay type: ADME, organism-based; conditions: in vivo
[38] = Toxicity in Wistar rat assessed as decrease in mean blood pressure at 30 mg/kg, iv measured after 20 mins; assay type: organism-based; conditions: in vivo
[39] = Toxicity in Wistar rat assessed as increase in histamine concentration in plasma at 30 mg/kg, iv measured after 24 hrs; assay type: organism-based; conditions: in vivo

Sequence of Sodium channel protein type 5 subunit alpha (Q14524 whole entry): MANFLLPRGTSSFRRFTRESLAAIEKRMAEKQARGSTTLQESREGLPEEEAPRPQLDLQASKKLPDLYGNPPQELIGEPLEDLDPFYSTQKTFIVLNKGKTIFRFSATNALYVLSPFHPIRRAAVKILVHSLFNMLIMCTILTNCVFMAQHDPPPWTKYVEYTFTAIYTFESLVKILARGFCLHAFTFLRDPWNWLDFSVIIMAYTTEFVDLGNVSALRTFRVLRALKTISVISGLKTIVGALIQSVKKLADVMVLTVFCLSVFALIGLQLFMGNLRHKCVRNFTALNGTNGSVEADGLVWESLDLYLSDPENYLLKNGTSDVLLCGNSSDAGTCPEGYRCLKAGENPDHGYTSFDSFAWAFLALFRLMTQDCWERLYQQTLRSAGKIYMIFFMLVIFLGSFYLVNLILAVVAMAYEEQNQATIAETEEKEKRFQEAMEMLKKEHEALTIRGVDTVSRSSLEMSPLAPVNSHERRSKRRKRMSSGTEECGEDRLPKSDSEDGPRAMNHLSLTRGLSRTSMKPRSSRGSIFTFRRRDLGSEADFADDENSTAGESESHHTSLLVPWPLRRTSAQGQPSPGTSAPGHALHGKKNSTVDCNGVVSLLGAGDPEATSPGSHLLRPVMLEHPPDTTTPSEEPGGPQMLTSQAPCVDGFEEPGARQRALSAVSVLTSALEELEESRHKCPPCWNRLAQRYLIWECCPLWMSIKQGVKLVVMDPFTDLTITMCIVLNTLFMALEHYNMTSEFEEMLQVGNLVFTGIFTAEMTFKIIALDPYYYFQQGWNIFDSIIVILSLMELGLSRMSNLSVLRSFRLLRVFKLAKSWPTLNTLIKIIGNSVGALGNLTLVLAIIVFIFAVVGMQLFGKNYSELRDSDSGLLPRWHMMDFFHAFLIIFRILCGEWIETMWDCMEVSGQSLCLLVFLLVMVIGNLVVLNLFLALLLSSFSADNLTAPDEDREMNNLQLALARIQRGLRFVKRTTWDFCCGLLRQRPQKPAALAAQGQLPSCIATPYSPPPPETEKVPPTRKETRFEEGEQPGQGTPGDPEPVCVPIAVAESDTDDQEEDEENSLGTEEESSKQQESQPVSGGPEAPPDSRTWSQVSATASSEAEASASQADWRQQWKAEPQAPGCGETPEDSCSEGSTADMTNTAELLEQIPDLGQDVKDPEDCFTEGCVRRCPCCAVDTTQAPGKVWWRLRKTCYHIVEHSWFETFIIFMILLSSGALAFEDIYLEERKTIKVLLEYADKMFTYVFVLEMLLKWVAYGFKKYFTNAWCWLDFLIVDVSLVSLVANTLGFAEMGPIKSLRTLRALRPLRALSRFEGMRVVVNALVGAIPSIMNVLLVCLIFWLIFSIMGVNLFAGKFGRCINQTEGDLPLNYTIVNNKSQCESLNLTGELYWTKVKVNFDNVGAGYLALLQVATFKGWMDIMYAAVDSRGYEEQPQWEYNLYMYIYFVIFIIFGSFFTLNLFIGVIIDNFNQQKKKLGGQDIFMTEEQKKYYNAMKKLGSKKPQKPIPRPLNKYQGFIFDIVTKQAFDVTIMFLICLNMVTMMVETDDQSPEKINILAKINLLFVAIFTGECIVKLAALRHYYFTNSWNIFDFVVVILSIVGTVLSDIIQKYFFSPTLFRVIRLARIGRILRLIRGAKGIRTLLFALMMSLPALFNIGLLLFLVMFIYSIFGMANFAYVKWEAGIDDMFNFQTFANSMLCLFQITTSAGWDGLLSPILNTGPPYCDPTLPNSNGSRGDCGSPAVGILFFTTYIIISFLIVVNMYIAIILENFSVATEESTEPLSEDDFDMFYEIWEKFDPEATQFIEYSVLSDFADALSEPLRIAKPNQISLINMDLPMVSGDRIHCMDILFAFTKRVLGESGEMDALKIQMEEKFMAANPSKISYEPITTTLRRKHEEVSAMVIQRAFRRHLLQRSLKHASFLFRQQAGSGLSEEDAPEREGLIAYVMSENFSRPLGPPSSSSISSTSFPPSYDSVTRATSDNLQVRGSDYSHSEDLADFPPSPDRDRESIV
Sequence of Cytochrome P450 3A4 (P08684 whole entry): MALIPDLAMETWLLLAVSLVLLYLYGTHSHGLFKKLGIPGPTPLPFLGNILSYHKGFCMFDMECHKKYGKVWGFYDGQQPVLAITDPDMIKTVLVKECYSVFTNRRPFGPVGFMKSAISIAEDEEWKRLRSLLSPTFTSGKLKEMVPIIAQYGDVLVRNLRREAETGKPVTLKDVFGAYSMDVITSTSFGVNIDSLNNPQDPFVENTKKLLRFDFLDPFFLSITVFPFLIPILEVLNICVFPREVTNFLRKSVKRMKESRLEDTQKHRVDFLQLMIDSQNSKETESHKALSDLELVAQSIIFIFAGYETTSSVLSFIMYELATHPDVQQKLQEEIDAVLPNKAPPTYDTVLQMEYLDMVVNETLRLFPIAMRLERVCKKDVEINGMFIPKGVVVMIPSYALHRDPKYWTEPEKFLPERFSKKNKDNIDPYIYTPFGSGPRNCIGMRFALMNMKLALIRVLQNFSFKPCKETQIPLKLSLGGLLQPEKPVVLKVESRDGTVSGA
Sequence of Voltage-gated inwardly rectifying potassium channel KCNH2 (Q12809 whole entry): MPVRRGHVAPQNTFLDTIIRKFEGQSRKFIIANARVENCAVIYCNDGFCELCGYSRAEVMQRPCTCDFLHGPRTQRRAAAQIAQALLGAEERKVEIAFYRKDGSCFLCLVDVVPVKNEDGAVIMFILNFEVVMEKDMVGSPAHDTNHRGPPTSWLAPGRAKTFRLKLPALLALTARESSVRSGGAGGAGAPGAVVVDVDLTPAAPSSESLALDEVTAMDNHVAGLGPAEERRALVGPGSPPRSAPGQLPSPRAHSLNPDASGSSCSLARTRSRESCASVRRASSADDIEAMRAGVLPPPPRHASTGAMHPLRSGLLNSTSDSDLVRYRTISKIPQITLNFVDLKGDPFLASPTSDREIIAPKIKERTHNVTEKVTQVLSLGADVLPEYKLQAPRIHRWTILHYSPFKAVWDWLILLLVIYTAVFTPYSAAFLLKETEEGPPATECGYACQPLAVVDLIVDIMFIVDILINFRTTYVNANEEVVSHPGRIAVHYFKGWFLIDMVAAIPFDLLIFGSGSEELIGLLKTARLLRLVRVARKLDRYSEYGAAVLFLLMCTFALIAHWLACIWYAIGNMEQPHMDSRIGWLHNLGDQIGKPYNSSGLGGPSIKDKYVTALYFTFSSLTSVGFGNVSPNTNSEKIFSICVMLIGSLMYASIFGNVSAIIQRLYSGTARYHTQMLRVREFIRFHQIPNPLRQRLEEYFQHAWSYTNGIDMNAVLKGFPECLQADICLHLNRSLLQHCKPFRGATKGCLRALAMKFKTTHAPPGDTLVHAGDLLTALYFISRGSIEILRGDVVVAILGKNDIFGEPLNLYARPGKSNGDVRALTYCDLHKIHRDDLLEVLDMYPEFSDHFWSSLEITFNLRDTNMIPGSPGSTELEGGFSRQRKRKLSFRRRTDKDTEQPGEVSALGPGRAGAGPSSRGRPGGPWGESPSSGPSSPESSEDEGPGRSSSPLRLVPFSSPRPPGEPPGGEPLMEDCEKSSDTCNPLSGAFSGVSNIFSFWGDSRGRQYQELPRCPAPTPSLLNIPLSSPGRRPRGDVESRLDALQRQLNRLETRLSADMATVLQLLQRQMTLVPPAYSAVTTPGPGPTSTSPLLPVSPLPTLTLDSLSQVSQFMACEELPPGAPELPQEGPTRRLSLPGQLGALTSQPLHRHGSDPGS
Sequence of Voltage-gated potassium channel, IKs; KCNQ1(Kv7.1)/KCNE1(MinK) (P51787 whole entry): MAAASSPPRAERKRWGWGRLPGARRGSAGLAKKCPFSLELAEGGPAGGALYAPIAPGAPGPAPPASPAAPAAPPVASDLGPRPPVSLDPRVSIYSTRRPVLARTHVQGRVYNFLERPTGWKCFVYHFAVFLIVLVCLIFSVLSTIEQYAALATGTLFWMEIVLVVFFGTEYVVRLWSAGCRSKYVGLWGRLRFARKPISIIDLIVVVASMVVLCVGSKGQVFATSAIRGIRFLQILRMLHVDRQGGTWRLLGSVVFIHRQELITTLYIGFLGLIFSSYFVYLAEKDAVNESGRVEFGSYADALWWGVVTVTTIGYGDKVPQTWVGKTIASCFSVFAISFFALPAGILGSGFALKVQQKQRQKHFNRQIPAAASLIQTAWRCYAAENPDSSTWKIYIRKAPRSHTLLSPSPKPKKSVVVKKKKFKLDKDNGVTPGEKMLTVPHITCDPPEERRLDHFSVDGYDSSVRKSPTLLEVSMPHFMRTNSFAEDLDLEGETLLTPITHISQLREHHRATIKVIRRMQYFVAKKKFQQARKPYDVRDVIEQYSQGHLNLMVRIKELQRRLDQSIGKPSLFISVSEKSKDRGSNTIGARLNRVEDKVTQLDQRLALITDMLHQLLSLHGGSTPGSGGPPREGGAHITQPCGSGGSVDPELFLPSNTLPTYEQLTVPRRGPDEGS
Sequence of Cytochrome P450 2D6 (P10635 whole entry): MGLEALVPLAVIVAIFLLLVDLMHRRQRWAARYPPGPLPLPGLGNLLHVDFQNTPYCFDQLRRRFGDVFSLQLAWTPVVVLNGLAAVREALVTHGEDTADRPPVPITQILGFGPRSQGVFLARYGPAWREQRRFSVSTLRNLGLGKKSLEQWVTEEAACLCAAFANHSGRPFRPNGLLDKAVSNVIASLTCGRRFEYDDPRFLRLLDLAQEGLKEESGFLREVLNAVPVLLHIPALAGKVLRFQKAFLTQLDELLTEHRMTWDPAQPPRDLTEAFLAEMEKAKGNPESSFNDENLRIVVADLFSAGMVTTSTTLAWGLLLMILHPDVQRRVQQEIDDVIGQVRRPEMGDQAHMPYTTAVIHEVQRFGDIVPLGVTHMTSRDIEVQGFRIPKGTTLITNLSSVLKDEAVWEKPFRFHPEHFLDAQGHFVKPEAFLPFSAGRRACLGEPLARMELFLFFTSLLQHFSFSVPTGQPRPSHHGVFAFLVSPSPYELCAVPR

## NS(=O)(=O)c1c(C[C@H]2CC[C@H](N)CC2)ccc(-c2ccc(C3CNC3)cc2)c1-c1nn[nH]n1
[1]
  AUC at 24 h: 83.7 µM·h
Escherichia coli
  MITC95: 0.8 µM
[2]
  Activity: Toxic
[3]
  Activity: Toxic
[4]
  Cmax: 9.3 µM
[5]
  Activity: Toxic
Pseudomonas aeruginosa [6]
  Ratio: 11
[7]
  Activity: Toxic
Pseudomonas aeruginosa [8]
  MITC95: 1.6 µM
[9]
  IC50: 43 nM
Klebsiella pneumoniae
  MITC95: 1.6 µM
[10]
  clearance: 2.2 mL/min/kg
[11]
  Vd: 0.39 L/kg
[12]
  IC50: 4 nM
Pseudomonas aeruginosa [13]
  MITC95: 18 µM
[14]
  Activity: Toxic
[15]
  Cmax: 84.3 µM
[16]
  MRT: 3.13 h
[17]
  IC50: 1 nM
[18]
  fraction unbound at 24 h: 0.42
Serratia marcescens
  MITC95: 3.1 µM
[19]
  Activity: Toxic

## Nc1nc2cccc(-c3ccc(C(F)(F)F)c(S(N)(=O)=O)c3-c3nnn[nH]3)c2[nH]1
Escherichia coli
  MITC95: 0.4 µM
[20]
  clearance: 9.6 mL/min/kg
[21]
  IC50: > 30 µM
[4]
  Cmax: 9 µM
Pseudomonas aeruginosa [6]
  Ratio: 32
[22]
  IC50: 1.3 nM
Pseudomonas aeruginosa [8]
  MITC95: 0.78 µM
[9]
  IC50: 3.8 nM
[23]
  MRT: 1.72 h
[24]
  fraction unbound at 24 h: 0.26
Klebsiella pneumoniae
  MITC95: 1.6 µM
[25]
  Vd: 0.38 L/kg
Cytochrome P450 2D6
  IC50: > 50 µM
[26]
  AUC at 24 h: 4.34 µM·h
[27]
  fraction unbound at 24 h: 0.065
Cytochrome P450 3A4
  IC50: > 50 µM
[12]
  IC50: 0.1 nM
Pseudomonas aeruginosa [13]
  MITC95: 25 µM
[28]
  IC50: > 30 µM
[29]
  IC50: > 30 µM
[30]
  Activity: Non-Toxic
Cytochrome P450 2C8
  IC50: > 50 µM
[31]
  AUC at 24 h: 4.1 µM·h
[32]
  IC50: > 30 µM
[17]
  IC50: 0.3 nM
[33]
  clearance: 9.1 mL/min/kg
[34]
  MRT: 39.6 min
[35]
  Cmax: 10.8 µM
Cytochrome P450 2C9
  IC50: > 50 µM
Serratia marcescens
  MITC95: 0.8 µM
[36]
  Vd: 0.94 L/kg

## NS(=O)(=O)c1c(CC2CCNCC2)ccc(-c2ccc(C3CCNCC3)cc2)c1-c1nn[nH]n1
Escherichia coli
  MITC95: 2 µM
[20]
  clearance: 6.4 mL/min/kg
[2]
  Activity: Toxic
[21]
  IC50: > 30 µM
[4]
  Cmax: 15 µM
Pseudomonas aeruginosa [6]
  Ratio: 6
[7]
  Activity: Toxic
[22]
  IC50: 1230 nM
Pseudomonas aeruginosa [8]
  MITC95: 0.8 µM
[9]
  IC50: 24 nM
[23]
  MRT: 3.2 h
[24]
  fraction unbound at 24 h: 0.84
Klebsiella pneumoniae
  MITC95: 2.3 µM
[25]
  Vd: 0.34 L/kg
Cytochrome P450 2D6
  IC50: > 50 µM
[26]
  AUC at 24 h: 10.4 µM·h
[27]
  fraction unbound at 24 h: 0.8
Cytochrome P450 3A4
  IC50: > 50 µM
[37]
  Cmax: 459 µM
[12]
  IC50: 11 nM
Pseudomonas aeruginosa [13]
  MITC95: 4.4 µM
[28]
  IC50: > 30 µM
[29]
  IC50: > 30 µM
[14]
  Activity: Toxic
Cytochrome P450 2C8
  IC50: > 50 µM
[31]
  AUC at 24 h: 5.5 µM·h
[38]
  Activity: Toxic
[32]
  IC50: > 30 µM
[17]
  IC50: 5 nM
[33]
  clearance: 3.5 mL/min/kg
[34]
  MRT: 52.8 min
[35]
  Cmax: 8.6 µM
Cytochrome P450 2C9
  IC50: > 50 µM
Serratia marcescens
  MITC95: 3.9 µM
[39]
  Activity: Toxic
[36]
  Vd: 0.45 L/kg
